Like-named read-outs stand apart in the source and are kept apart here.
How the values were obtained:
[1] = target: GAL4 DBD (1-147)-CfEcR(DEF)/VP16AD-βRXREF-LmUSPEF (Choristoneura fumiferana, UniProt O77240); assay: cell-based; details: for 27-63 assay Rel Max FI: maximum fold induction at any concentration relative to that of GS-E ligand, CHO 27-63 cells; for fold induction at 3.3 µM: read-out: Fold Induction, 27-63 Assay, 3.3 uM; for fold induction at 33 µM: read-out: Fold Induction, 27-63 Assay, 33 uM; for Fold Induction, 27-63 Assay, 3.3 uM: 3.3 uM ligand; for Fold Induction, 27-63 Assay, 3.3 uM / Fold Induction, 27-63 Assay, 33 uM: RLU ligand treated / RLU DMSO treated cells; for Fold Induction, 27-63 Assay, 33 uM: 33 uM ligand
[2] = target: GAL4 DBD-CfEcR(DEF)/VP16AD-MmRXRE (Choristoneura fumiferana, UniProt O77240); assay: 13B3 Assay (CHO stable cell line, luciferase reporter); details: for 13B3 assay Rel Max FI: maximum fold induction at any concentration relative to that of GS-E ligand, CHO 13B3 cells; for fold induction at 3.3 µM: read-out: Fold Induction, 13B3 Assay, 3.3 uM; for fold induction at 33 µM: read-out: Fold Induction, 13B3 Assay, 33 uM; for Fold Induction, 13B3 Assay, 3.3 uM: 3.3 uM ligand; for Fold Induction, 13B3 Assay, 3.3 uM / Fold Induction, 13B3 Assay, 33 uM: RLU ligand treated / RLU DMSO treated cells; for Fold Induction, 13B3 Assay, 33 uM: 33 uM ligand
Method in brief: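 Ligands dosed at 8 levels from 33 to 0.01 μM (DMSO stocks diluted 300-fold) onto the 13B3 CHO line carrying GAL4-DBD/CfEcR-DEF, VP16/MmRXR-DE and a GAL4-responsive luciferase gene.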

[3] = read-out: 27-63 assay EC50, CHO 27-63 stable cell line, luciferase reporter, average of two wells
[4] = read-out: 13B3 EC50, CHO 13B3 stable cell line, luciferase reporter, 48 h, average of two wells

SMILES | EC50 [1] [nM] | 27-63 assay Rel Max FI [1] | fold induction at 3.3 µM [1] | fold induction at 33 µM [1] | EC50 [2] [nM] | 13B3 assay Rel Max FI [2] | fold induction at 3.3 µM [2] | fold induction at 33 µM [2] | Fold Induction, 27-63 Assay, 3.3 uM ([1]; average of two wells) | Fold Induction, 27-63 Assay, 33 uM ([1]; average of two wells) | EC50 [1, 3] [nM] | Fold Induction, 13B3 Assay, 3.3 uM ([2]; average of two wells) | Fold Induction, 13B3 Assay, 33 uM ([2]; average of two wells) | EC50 [2, 4] [nM]
CCc1c(OC)cccc1C(=O)NN(C(=O)c1cc(C)cc(C)c1)C(C)(C)C=O [RG-115407, 2-ethyl-3-methoxy-benzoic acid N′-(3,5-dimethyl-benzoyl)-N′-(1,1-dimethyl-2-oxo-ethyl)-hydrazide] | 1060 | 0.932 | 1610 | 1520 | 7000 | 1.048 | 2480 | 2610 |  |  |  |  |  | 
Cc1c(C(=O)NN(C(=O)c2ccc(F)c(F)c2)C(C)(C)C)ccc2c1CCCO2 [RG-115416] |  | 0.721 |  |  |  | 12.104 |  |  | 2412 | 1867 | 637 | 3618 | 2737 | 938
Cc1ccc(F)c(C(=O)N(NC(=O)c2ccc3c(c2C)CCCO3)C(C)(C)C)c1 [RG-115499] |  | 0.705 |  |  |  | 0.489 |  |  | 2092 | 1536 | 336 | 1182 | 731 | 328
CCc1c(C(=O)NN(C(=O)c2cc(F)ccc2F)C(C)(C)C)ccc2c1OCCO2 [RG-115508] |  | 0.719 |  |  |  | 0.805 |  |  | 1195 | 969 | 1030 | 310 | 191 | 849
CCc1c(OC)cccc1C(=O)NN(C(=O)c1cc(C)cc(C)c1)C(C)(C)C=NCCO [RG-115511] |  | 0.74 |  |  |  | 0.07 |  |  | 1 | 1155 | 12000 | 1 | 98 | > 50000
CCc1c(C(=O)NN(C(=O)c2ccc(Cl)cc2F)C(C)(C)C)ccc2c1OCCO2 [RG-115514] |  | 0.720 |  |  |  | 0.550 |  |  | 1616 | 1427 | 170 | 4009 | 515 | 541
Cc1c(C(=O)NN(C(=O)c2cc(F)c(F)c(F)c2F)C(C)(C)C)ccc2c1CCCO2 [RG-115518] |  | 0.866 |  |  |  | 0.648 |  |  | 1640 | 1126 | 1050 | 1644 | 926 | 1250
Cc1c(C(=O)NN(C(=O)c2cc(F)c(Cl)cc2Cl)C(C)(C)C)ccc2c1CCCO2 [RG-115539] |  | 0.595 |  |  |  | 0.955 |  |  | 1076 | 534 | 1180 | 20 | 592 | 5000
COc1ccc(Cl)cc1C(=O)N(NC(=O)c1ccc2c(c1C)CCCO2)C(C)(C)C [RG-115551] |  | 0.684 |  |  |  |  |  |  | 1150 | 1068 | 852 |  | 290 | 
CCc1c(C(=O)NN(C(=O)c2ccc(F)c(F)c2F)C(C)(C)C)ccc2c1OCCO2 [RG-115580] |  | 0.760 |  |  |  |  |  |  | 1104 | 1031 | 375 |  | 298 | 
CCc1c(OC)cccc1C(=O)NN(C(=O)c1cc(C)cc(C)c1)C(C)(C)C=NNC(=O)C(N)=O [RG-115597, oxamic carbazide of 2-ethyl-3-methoxy-benzoic acid N′-(3,5-dimethyl-benzoyl)-N′-(1,1-dimethyl-2-oxo-ethyl)-hydrazide] |  | 1.26 |  |  |  |  |  |  | 2 | 2065 | 9830 |  | 4667 | 
COc1cc(C(=O)N(NC(=O)c2ccc3c(c2C)OCCO3)C(C)(C)C)cc(OC)c1C [RG-115637, 5-Methyl-2,3-dihydro-benzo[1,4]dioxine-6-carboxylic acid N′-tert-butyl-N′-(3,5-dimethoxy-4-methyl-benzoyl)-hydrazide] | 117 | 1.305 | 4160 | 2740 | 88 | 1.002 | 1110 | 636 |  |  |  |  |  | 
CCc1c(OC)cccc1C(=O)NN(C(=O)c1ccc(Cl)cc1[N+](=O)[O-])C(C)(C)C [RG-115647] |  | 0.505 |  |  |  | 0.662 |  |  | 817 | 815 | 372 | 2169 | 98 | 832
CCc1c(OC)cccc1C(=O)NN(C(=O)c1cc(C)cc(C)c1)C(C)(C)C=NNC(N)=O [RG-115653, semicarbazide of 2-ethyl-3-methoxy-benzoic acid N′-(3,5-dimethyl-benzoyl)-N′-(1,1-dimethyl-2-oxo-ethyl)-hydrazide] |  | 0.53 |  |  |  |  |  |  | 1 | 832 | 19800 | 6 |  | 
Cc1ccc([N+](=O)[O-])c(C(=O)N(NC(=O)c2ccc3c(c2C)CCCO3)C(C)(C)C)c1 [RG-115664] |  | 0.635 |  |  |  | 0.497 |  |  | 1928 | 1768 | 359 | 1363 | 333 | 323
CCc1c(OC)cccc1C(=O)NN(C(=O)c1cc(C)cc(C)c1)C(C)(C)CO[Si](C)(C)C(C)(C)C [RG-115665, 2-ethyl-3-methoxy-benzoic acid N′-[2-(tert-butyl-dimethyl-silanyloxy)-1,1-dimethyl-ethyl]-N′-(3,5-dimethyl-benzoyl)-hydrazide] | 5490 | 0.01 | 2 |  | > 50000 | 0 | 1 |  |  |  |  |  |  | 
